Measured values reported in ChEMBL document CHEMBL4431316, “New 6-Aminoquinoxaline Derivatives with Neuroprotective Effect on Dopaminergic Neurons in Cellular and Animal Parkinson Disease Models” (J Med Chem, 2016).
Activity calls are given as the source filed them. No cut-off for these calls is given here.

Species: Rattus norvegicus
Experiment: Neuroprotective activity in Sprague-Dawley rat DA neuron death PD model assessed as inhibition of calcium mobilization at 50 uM after 10 days in presence of N-type voltage gated calcium channel blocker omega-conotoxin M7A
Type: functional

Nc1ccc2ncc(-c3ccccc3)nc2c1
inhibition: Active
